Data taken from US7928238B2, “1,2,3,4-tetrahydro-quinoline derivatives as CETP inhibitors” (Janssen Pharmaceutica NV, priority 2006, dated 2011).
pIC50: −log10 of the molar value. Values joined by “and” are separate entries in the source; they are usually repeats but may differ in a detail not shown here. Equal entries are not always repeated.

Columns and labels:
[1] = biological target: T1, CETP (Homo sapiens, UniProt P11597); experiment: CETP in vitro assay (Amersham kit TRKQ7005; modified protocol in human plasma, [3H]CE-HDL transfer); type: biochemical; settings: for % Inhibition @ 1 μM / inhibition at 1 µM: 1 μM compound; for inhibition at 1 µM: read-out: % Inhibition @ 1 μM; for pIC50: from plots of % control versus compound concentration
T1 construct: from tissue; host or cells: human plasma from normal volunteers
T1 sequence (P11597 18-493): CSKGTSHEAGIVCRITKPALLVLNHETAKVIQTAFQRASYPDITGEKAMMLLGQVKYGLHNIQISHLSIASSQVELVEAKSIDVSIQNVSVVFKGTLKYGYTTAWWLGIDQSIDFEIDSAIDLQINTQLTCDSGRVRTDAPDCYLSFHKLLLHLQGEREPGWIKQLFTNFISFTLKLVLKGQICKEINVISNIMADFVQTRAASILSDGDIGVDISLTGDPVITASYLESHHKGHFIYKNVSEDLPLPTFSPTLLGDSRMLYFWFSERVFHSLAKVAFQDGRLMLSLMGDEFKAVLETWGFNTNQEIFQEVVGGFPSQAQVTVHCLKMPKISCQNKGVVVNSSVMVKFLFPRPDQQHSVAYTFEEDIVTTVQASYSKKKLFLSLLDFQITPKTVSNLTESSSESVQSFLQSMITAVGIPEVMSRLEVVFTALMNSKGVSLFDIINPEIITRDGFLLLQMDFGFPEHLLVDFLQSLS
Outline: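 IC50 values were derived by plotting % of vehicle control against compound concentration. Transfer was quantified by counting supernatant radioactivity after Dextralip/MgCl2 precipitation. Compound, human plasma and [3H]CE-HDL (about 25 μg/ml, as added) were incubated 4 h or more at 37 °C, with a 4 °C plate as the non-specific blank.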

[2] = tested on: cholesterol-fed hamsters; experiment: CETP in vivo assay: lipid parameters in cholesterol-fed hamsters; settings: plasma, mean ± SEM, n = 8
Protocol: To determine the in vivo efficacy of a test compound, hamsters were first fed a moderately high cholesterol diet (Research Diets, D5012801) for two weeks before commencing treatment. The animals were orally gavaged with the vehicle (10% solutol, 5% ethanol, 85% D5W) and test compound for 5 days with the last dose being administered 2 hrs before sacrifice. Plasma was obtained and lipid parameters were measured.

[3] = tested on: rabbits; settings: 30 mg/kg; cited from earlier work
[4] = tested on: rabbits had severe hypercholesterolemia; settings: rabbits with severe hypercholesterolemia; cited from earlier work
[5] = clinical studies; cited from earlier work
[6] = particularly in combination with Atorvastatin; cited from earlier work
[7] = 10 mg/kg oral gavage for 5 days
[8] = 30 mg/kg oral gavage for 5 days

O[C@@H](CN1c2cccc(-c3cccc(OC(F)(F)F)c3)c2CC[C@@H]1c1cccc(OC(F)(F)C(F)F)c1)C(F)(F)F [Compound 78, (S)-1,1,1-trifluoro-3-((R)-2-(3-(1,1,2,2-tetrafluoroethoxy)phenyl)-5-(3-(trifluoromethoxy)phenyl)-3,4-dihydroquinolin-1 (2H)-yl)propan-2-ol]
% Inhibition @ 1 μM [1]: 79%
inhibition at 1 µM [1]: 85%
pIC50 [1]: 7.47 and 7.36
HDL-C ([2]; 3 mg/kg oral gavage for 5 days, last dose 2 hrs before sacrifice): 96.2 ± 4.9 mg/dL
HDL-C/LDL-C ([2]; 3 mg/kg oral gavage for 5 days): 3.1 ± 0.2
LDL-C ([2]; 3 mg/kg oral gavage for 5 days): 31.6 ± 1.9 mg/dL
Total Cholesterol ([2]; 3 mg/kg oral gavage for 5 days): 149.3 ± 7.7 mg/dL
Triglycerides ([2]; 3 mg/kg oral gavage for 5 days): 217.7 ± 18.1 mg/dL
HDL-C [2, 7]: 117.9 ± 2.9 mg/dL
HDL-C/LDL-C [2, 7]: 4.3 ± 0.3
LDL-C [2, 7]: 28.1 ± 1.8 mg/dL
Total Cholesterol [2, 7]: 178.5 ± 5.4 mg/dL
Triglycerides [2, 7]: 325.6 ± 24.3 mg/dL
HDL-C [2, 8]: 121.4 ± 2.5 mg/dL
HDL-C/LDL-C [2, 8]: 4.6 ± 0.4
LDL-C [2, 8]: 27.9 ± 2.5 mg/dL
Total Cholesterol [2, 8]: 188.4 ± 9.2 mg/dL
Triglycerides [2, 8]: 350.8 ± 10.9 mg/dL

CCC(CC)CC1(C(=O)Nc2ccccc2SC(=O)C(C)C)CCCCC1 [JTT-705]
CETP activity [3]: inhibited CETP activity
increased HDL-C [3]: +90%
reduced lesion size [3]: −70%
reduced non-HDL-C cholesterol [3]: −50%
lesion development [4]: not efficacious in preventing lesion development
plasma triglycerides [4]: significant elevations of plasma triglycerides
HDL-C [5]: raise HDL-C
LDL-C [5]: modestly lower LDL-C
triglyceride levels [5]: not alter triglyceride levels

CCC1CCc2c(-c3cccc(OC(F)(F)F)c3)cccc2N1CC(O)C(F)(F)F (centres unmarked) [Compound 35, 3-[2-Ethyl-5-(3-trifluoromethoxy-phenyl)-3,4-dihydro-2H-quinolin-1-yl]-1,1,1-trifluoro-propan-2-ol]
% Inhibition @ 1 μM [1]: 43% and 45%

CCOC(=O)N1c2ccc(C(F)(F)F)cc2[C@@H](N(Cc2cc(C(F)(F)F)cc(C(F)(F)F)c2)C(=O)OC)C[C@H]1CC [Torcetrapib]
results in Phase II trials [6]: positive results in Phase II trials

COc1cccc(C2CCc3c(-c4cccc(OC(F)(F)F)c4)cccc3N2CC(O)C(F)(F)F)c1 (centres unmarked) [Compound 26, 1,1,1-Trifluoro-3-[2-(3-methoxy-phenyl)-5-(3-trifluoromethoxy-phenyl)-3,4-dihydro-2H-quinolin-1-yl]-propan-2-ol]
% Inhibition @ 1 μM [1]: 4%

OC(CN1c2cccc(-c3cccnc3)c2CCC1c1cccc(OC(F)(F)C(F)F)c1)C(F)(F)F (centres unmarked) [Compound 76, 1,1,1-Trifluoro-3-{5-pyridin-3-yl-2-[3-(1,1,2,2-tetrafluoro-ethoxy)-phenyl]-3,4-dihydro-2H-quinolin-1-yl}-propan-2-ol]
% Inhibition @ 1 μM [1]: 38%
inhibition at 1 µM [1]: 57%

OC(CN1c2cccc(-c3cccc(OC(F)(F)F)c3)c2CCC1c1cccc(C(F)(F)F)c1)C(F)(F)F (centres unmarked) [Compound 17, 1,1,1-Trifluoro-3-[5-(3-trifluoromethoxy-phenyl)-2-(3-trifluoromethyl-phenyl)-3,4-dihydro-2H-quinolin-1-yl]-propan-2-ol]
% Inhibition @ 1 μM [1]: 43% and 55%
inhibition at 1 µM [1]: 54%
pIC50 [1]: 7.08 and 6.69

CC(C)c1cccc(-c2cccc3c2CCC(c2cccc(OC(F)(F)C(F)F)c2)N3CC(O)C(F)(F)F)c1 (centres unmarked) [Compound 66, 1,1,1-Trifluoro-3-{5-(3-isopropyl-phenyl)-2-[3-(1,1,2,2-tetrafluoro-ethoxy)-phenyl]-3,4-dihydro-2H-quinolin-1-yl}-propan-2-ol]
% Inhibition @ 1 μM [1]: 60% and 65%
pIC50 [1]: 6.74 and 6.43

COC[C@@H](O)CN1c2cccc(-c3cccc(OC(F)(F)F)c3)c2CC[C@@H]1c1cccc(OC(F)(F)F)c1 [Compound 51]
inhibition at 1 µM [1]: 13%

OC(CN1c2cccc(-c3cccc(OC(F)(F)F)c3)c2CCC1c1cccc(F)c1)C(F)(F)F (centres unmarked) [Compound 23, 1,1,1-Trifluoro-3-[2-(3-fluoro-phenyl)-5-(3-trifluoromethoxy-phenyl)-3,4-dihydro-2H-quinolin-1-yl]-propan-2-ol]
% Inhibition @ 1 μM [1]: 33%

COc1cccc(-c2cccc3c2CC[C@H](c2cccc(OC(F)(F)C(F)F)c2)N3C[C@H](O)C(F)(F)F)c1 [Compound 83]
% Inhibition @ 1 μM [1]: 98%
inhibition at 1 µM [1]: 100%
pIC50 [1]: 6.85 and 6.80

N#Cc1cccc(C2CCc3c(-c4cccc(OC(F)(F)F)c4)cccc3N2CC(O)C(F)(F)F)c1 (centres unmarked) [Compound 28, 3-[1-(3,3,3-Trifluoro-2-hydroxy-propyl)-5-(3-trifluoromethoxy-phenyl)-1,2,3,4-tetrahydro-quinolin-2-yl]-benzonitrile]
% Inhibition @ 1 μM [1]: 25%

OC(CN1c2cccc(-c3cccc(Cl)c3)c2CCC1c1cccc(OC(F)(F)C(F)F)c1)C(F)(F)F (centres unmarked) [Compound 16, 3-{5-(3-Chloro-phenyl)-2-[3-(1,1,2,2-tetrafluoro-ethoxy)-phenyl]-3,4-dihydro-2H-quinolin-1-yl}-1,1,1-trifluoro-propan-2-ol]
inhibition at 1 µM [1]: 55%
